Test results: patent publication US7375083B2, “Pharmaceutical compositions for prevention of overdose or abuse” (Shire LLC, priority 2003, dated 2008)

Tests used:
[1] = biological target: T1, human recombinant dopamine transport binding sites (Homo sapiens, UniProt Q01959); assay: Radioligand binding, dopamine transporter; conditions: 10^−9 to 10^−5 M
T1 construct: purchased Novascreen, Hanover, Md

[2] = Oral bioavailability in rats at escalating doses, LC/MS/MS; conditions: rat
Anesthetized Dog = assay: Cardiovascular effects after intravenous bolus injection in anesthetized dogs
[3] = male, Sprague-Dawley, in vivo, po, 3 mg/kg
[4] = male, Sprague-Dawley, in vivo, po, 6 mg/kg
[5] = male, Sprague-Dawley, in vivo, po, 12 mg/kg
[6] = male, Sprague-Dawley, in vivo, po, 60 mg/kg

T1 sequence (Q01959 whole entry): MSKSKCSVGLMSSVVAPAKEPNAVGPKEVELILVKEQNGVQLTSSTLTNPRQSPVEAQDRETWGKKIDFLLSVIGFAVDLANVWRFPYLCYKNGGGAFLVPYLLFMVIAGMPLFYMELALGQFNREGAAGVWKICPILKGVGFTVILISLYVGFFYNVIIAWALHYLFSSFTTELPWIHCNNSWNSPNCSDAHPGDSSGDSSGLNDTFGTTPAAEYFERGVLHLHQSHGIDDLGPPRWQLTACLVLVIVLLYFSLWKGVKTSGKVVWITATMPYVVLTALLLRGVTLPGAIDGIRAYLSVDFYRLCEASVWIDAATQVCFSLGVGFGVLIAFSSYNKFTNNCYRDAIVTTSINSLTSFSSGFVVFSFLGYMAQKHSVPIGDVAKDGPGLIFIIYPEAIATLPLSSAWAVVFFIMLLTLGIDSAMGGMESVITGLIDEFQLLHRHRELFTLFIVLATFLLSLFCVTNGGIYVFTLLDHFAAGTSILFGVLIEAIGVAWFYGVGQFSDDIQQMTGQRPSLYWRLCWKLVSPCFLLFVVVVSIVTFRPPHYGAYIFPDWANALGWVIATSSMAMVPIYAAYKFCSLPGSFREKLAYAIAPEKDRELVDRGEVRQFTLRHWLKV

CC(Cc1ccccc1)NC(=O)C(N)CCCCN [L-lysine-d-amphetamine, 2,6-diaminohexanoic acid-(1-methyl-2-phenylethyl)-amide]
Specific binding [1]: did not bind | Tmax ([2]; male, Sprague-Dawley, in vivo, po): 0.25 to 3 h | AUC(0-t) [2, 3]: 330 ng·h/mL | Cmax [2, 3]: 135 ng/mL | Tmax [2, 3]: 1.5 h | AUC(0-t) [2, 4]: 1160 ng·h/mL | Cmax [2, 4]: 677 ng/mL | Tmax [2, 4]: 0.25 h | AUC(0-inf) [2, 5]: 4510 ng·h/mL | AUC(0-t) [2, 5]: 4240 ng·h/mL | Cmax [2, 5]: 856 ng/mL | Tmax [2, 5]: 1 h | AUC(0-t) [2, 6]: 8230 ng·h/mL | Cmax [2, 6]: 1870 ng/mL | Tmax [2, 6]: 3 h | Tmax ([2]; male, Sprague-Dawley, in vivo, po, […]): 0.25 h | Cmax of d-amphetamine compared to d-amphetamine sulfate ([2]; oral, 1.5 to 6 mg/kg): reduced by approximately half | DAP % Change from respective Time 0 (Anesthetized Dog; 0.5 mg/kg, TIME 0): 0% | DAP - diastolic arterial pressure (Anesthetized Dog; 0.5 mg/kg, TIME 0): 51 mmHg | LVP % Change from respective Time 0 (Anesthetized Dog; 0.5 mg/kg, TIME 0): 0% | LVP - left ventricular pressure (Anesthetized Dog; 0.5 mg/kg, TIME 0): 86 mmHg | MAP % Change from respective Time 0 (Anesthetized Dog; 0.5 mg/kg, TIME 0): 0% | MAP - mean arterial pressure (Anesthetized Dog; 0.5 mg/kg, TIME 0): 64 mmHg | SAP % Change from respective Time 0 (Anesthetized Dog; 0.5 mg/kg, TIME 0): 0% | SAP - systolic arterial pressure (Anesthetized Dog; 0.5 mg/kg, TIME 0): 84 mmHg | DAP % Change from respective Time 0 (Anesthetized Dog; 0.5 mg/kg, TIME 5): 3% | DAP - diastolic arterial pressure (Anesthetized Dog; 0.5 mg/kg, TIME 5): 52 mmHg | LVP % Change from respective Time 0 (Anesthetized Dog; 0.5 mg/kg, TIME 5): 2% | LVP - left ventricular pressure (Anesthetized Dog; 0.5 mg/kg, TIME 5): 87 mmHg | MAP % Change from respective Time 0 (Anesthetized Dog; 0.5 mg/kg, TIME 5): 3% | MAP - mean arterial pressure (Anesthetized Dog; 0.5 mg/kg, TIME 5): 66 mmHg | SAP % Change from respective Time 0 (Anesthetized Dog; 0.5 mg/kg, TIME 5): 4% | SAP - systolic arterial pressure (Anesthetized Dog; 0.5 mg/kg, TIME 5): 87 mmHg | DAP % Change from respective Time 0 (Anesthetized Dog; 0.5 mg/kg, TIME 15): 1% | DAP - diastolic arterial pressure (Anesthetized Dog; 0.5 mg/kg, TIME 15): 51 mmHg | LVP % Change from respective Time 0 (Anesthetized Dog; 0.5 mg/kg, TIME 15): 11% | LVP - left ventricular pressure (Anesthetized Dog; 0.5 mg/kg, TIME 15): 95 mmHg | MAP % Change from respective Time 0 (Anesthetized Dog; 0.5 mg/kg, TIME 15): 5% | MAP - mean arterial pressure (Anesthetized Dog; 0.5 mg/kg, TIME 15): 67 mmHg | SAP % Change from respective Time 0 (Anesthetized Dog; 0.5 mg/kg, TIME 15): 11% | SAP - systolic arterial pressure (Anesthetized Dog; 0.5 mg/kg, TIME 15): 93 mmHg | DAP % Change from respective Time 0 (Anesthetized Dog; 0.5 mg/kg, TIME 25): 8% | DAP - diastolic arterial pressure (Anesthetized Dog; 0.5 mg/kg, TIME 25): 55 mmHg | LVP % Change from respective Time 0 (Anesthetized Dog; 0.5 mg/kg, TIME 25): 22% | LVP - left ventricular pressure (Anesthetized Dog; 0.5 mg/kg, TIME 25): 105 mmHg | MAP % Change from respective Time 0 (Anesthetized Dog; 0.5 mg/kg, TIME 25): 15% | MAP - mean arterial pressure (Anesthetized Dog; 0.5 mg/kg, TIME 25): 73 mmHg | SAP % Change from respective Time 0 (Anesthetized Dog; 0.5 mg/kg, TIME 25): 25% | DAP % Change from respective Time 0 (Anesthetized Dog; 0.5 mg/kg, TIME 30): 14% | DAP - diastolic arterial pressure (Anesthetized Dog; 0.5 mg/kg, TIME 30): 58 mmHg | LVP % Change from respective Time 0 (Anesthetized Dog; 0.5 mg/kg, TIME 30): 26% | MAP % Change from respective Time 0 (Anesthetized Dog; 0.5 mg/kg, TIME 30): 21% | MAP - mean arterial pressure (Anesthetized Dog; 0.5 mg/kg, TIME 30): 77 mmHg | SAP % Change from respective Time 0 (Anesthetized Dog; 0.5 mg/kg, TIME 30): 28% | DAP % Change from respective Time 0 (Anesthetized Dog; 1.0 mg/kg, TIME 0): 0% | DAP - diastolic arterial pressure (Anesthetized Dog; 1.0 mg/kg, TIME 0): 55 mmHg | LVP % Change from respective Time 0 (Anesthetized Dog; 1.0 mg/kg, TIME 0): 0% | MAP % Change from respective Time 0 (Anesthetized Dog; 1.0 mg/kg, TIME 0): 0% | MAP - mean arterial pressure (Anesthetized Dog; 1.0 mg/kg, TIME 0): 74 mmHg | SAP % Change from respective Time 0 (Anesthetized Dog; 1.0 mg/kg, TIME 0): 0% | SAP - systolic arterial pressure (Anesthetized Dog; 1.0 mg/kg, TIME 0): 105 mmHg | DAP % Change from respective Time 0 (Anesthetized Dog; 1.0 mg/kg, TIME 5): 15% | DAP - diastolic arterial pressure (Anesthetized Dog; 1.0 mg/kg, TIME 5): 63 mmHg | LVP % Change from respective Time 0 (Anesthetized Dog; 1.0 mg/kg, TIME 5): 11% | LVP - left ventricular pressure (Anesthetized Dog; 1.0 mg/kg, TIME 5): 120 mmHg | MAP % Change from respective Time 0 (Anesthetized Dog; 1.0 mg/kg, TIME 5): 15% | MAP - mean arterial pressure (Anesthetized Dog; 1.0 mg/kg, TIME 5): 85 mmHg | SAP % Change from respective Time 0 (Anesthetized Dog; 1.0 mg/kg, TIME 5): 15% | DAP % Change from respective Time 0 (Anesthetized Dog; 1.0 mg/kg, TIME 15): 33% | DAP - diastolic arterial pressure (Anesthetized Dog; 1.0 mg/kg, TIME 15): 73 mmHg | LVP % Change from respective Time 0 (Anesthetized Dog; 1.0 mg/kg, TIME 15): 29% | LVP - left ventricular pressure (Anesthetized Dog; 1.0 mg/kg, TIME 15): 140 mmHg | MAP % Change from respective Time 0 (Anesthetized Dog; 1.0 mg/kg, TIME 15): 35% | MAP - mean arterial pressure (Anesthetized Dog; 1.0 mg/kg, TIME 15): 100 mmHg | SAP % Change from respective Time 0 (Anesthetized Dog; 1.0 mg/kg, TIME 15): 35% | DAP % Change from respective Time 0 (Anesthetized Dog; 1.0 mg/kg, TIME 25): 75% | DAP - diastolic arterial pressure (Anesthetized Dog; 1.0 mg/kg, TIME 25): 97 mmHg | LVP % Change from respective Time 0 (Anesthetized Dog; 1.0 mg/kg, TIME 25): 50% | MAP % Change from respective Time 0 (Anesthetized Dog; 1.0 mg/kg, TIME 25): 68% | SAP % Change from respective Time 0 (Anesthetized Dog; 1.0 mg/kg, TIME 25): 55% | DAP % Change from respective Time 0 (Anesthetized Dog; 1.0 mg/kg, TIME 30): 32% | DAP - diastolic arterial pressure (Anesthetized Dog; 1.0 mg/kg, TIME 30): 73 mmHg | LVP % Change from respective Time 0 (Anesthetized Dog; 1.0 mg/kg, TIME 30): 33% | MAP % Change from respective Time 0 (Anesthetized Dog; 1.0 mg/kg, TIME 30): 32% | MAP - mean arterial pressure (Anesthetized Dog; 1.0 mg/kg, TIME 30): 98 mmHg | SAP % Change from respective Time 0 (Anesthetized Dog; 1.0 mg/kg, TIME 30): 28% | DAP % Change from respective Time 0 (Anesthetized Dog; 5.0 mg/kg, TIME 0): 0% | DAP - diastolic arterial pressure (Anesthetized Dog; 5.0 mg/kg, TIME 0): 71 mmHg | LVP % Change from respective Time 0 (Anesthetized Dog; 5.0 mg/kg, TIME 0): 0% | MAP % Change from respective Time 0 (Anesthetized Dog; 5.0 mg/kg, TIME 0): 0% | MAP - mean arterial pressure (Anesthetized Dog; 5.0 mg/kg, TIME 0): 95 mmHg | SAP % Change from respective Time 0 (Anesthetized Dog; 5.0 mg/kg, TIME 0): 0% | SAP - systolic arterial pressure (Anesthetized Dog; 5.0 mg/kg, TIME 0): 132 mmHg | DAP % Change from respective Time 0 (Anesthetized Dog; 5.0 mg/kg, TIME 5): 0% | DAP - diastolic arterial pressure (Anesthetized Dog; 5.0 mg/kg, TIME 5): 71 mmHg | LVP % Change from respective Time 0 (Anesthetized Dog; 5.0 mg/kg, TIME 5): 5% | MAP % Change from respective Time 0 (Anesthetized Dog; 5.0 mg/kg, TIME 5): 4% | MAP - mean arterial pressure (Anesthetized Dog; 5.0 mg/kg, TIME 5): 99 mmHg | SAP % Change from respective Time 0 (Anesthetized Dog; 5.0 mg/kg, TIME 5): 7% | DAP % Change from respective Time 0 (Anesthetized Dog; 5.0 mg/kg, TIME 15): 39% | DAP - diastolic arterial pressure (Anesthetized Dog; 5.0 mg/kg, TIME 15): 98 mmHg | LVP % Change from respective Time 0 (Anesthetized Dog; 5.0 mg/kg, TIME 15): 28% | MAP % Change from respective Time 0 (Anesthetized Dog; 5.0 mg/kg, TIME 15): 37% | MAP - mean arterial pressure (Anesthetized Dog; 5.0 mg/kg, TIME 15): 130 mmHg | SAP % Change from respective Time 0 (Anesthetized Dog; 5.0 mg/kg, TIME 15): 33% | DAP % Change from respective Time 0 (Anesthetized Dog; 5.0 mg/kg, TIME 25): −3% | DAP - diastolic arterial pressure (Anesthetized Dog; 5.0 mg/kg, TIME 25): 69 mmHg | LVP % Change from respective Time 0 (Anesthetized Dog; 5.0 mg/kg, TIME 25): 11% | LVP - left ventricular pressure (Anesthetized Dog; 5.0 mg/kg, TIME 25): 160 mmHg | MAP % Change from respective Time 0 (Anesthetized Dog; 5.0 mg/kg, TIME 25): 1% | MAP - mean arterial pressure (Anesthetized Dog; 5.0 mg/kg, TIME 25): 96 mmHg | SAP % Change from respective Time 0 (Anesthetized Dog; 5.0 mg/kg, TIME 25): −5% | DAP % Change from respective Time 0 (Anesthetized Dog; 5.0 mg/kg, TIME 30): −1% | DAP - diastolic arterial pressure (Anesthetized Dog; 5.0 mg/kg, TIME 30): 70 mmHg | LVP % Change from respective Time 0 (Anesthetized Dog; 5.0 mg/kg, TIME 30): 13% | MAP % Change from respective Time 0 (Anesthetized Dog; 5.0 mg/kg, TIME 30): 4% | MAP - mean arterial pressure (Anesthetized Dog; 5.0 mg/kg, TIME 30): 99 mmHg | SAP % Change from respective Time 0 (Anesthetized Dog; 5.0 mg/kg, TIME 30): 0% | SAP - systolic arterial pressure (Anesthetized Dog; 5.0 mg/kg, TIME 30): 132 mmHg | Effect on mean blood pressure after the first (lowest) dose (Anesthetized Dog; dog, IV bolus, 0.202 mg/kg d-amphetamine, equimolar to 0.5 mg/kg L-lysine-d-amphetamine): very little change in mean BP | Increase of mean blood pressure (Anesthetized Dog; dog, IV bolus, approximately 30 minutes after injection): 20-50%
